Data on one sequence can be found in PMC4104761, “Identification of a novel lytic peptide for the treatment of solid tumours” (Genes & Cancer, 2014).

In series [1] the test system is 4T1 murine mammary carcinoma cells. As to the kind of experiment: Time-lapse confocal microscopy. The note with it: 20 µg Cypep-1/ml for 3 hours; strongest effect between 40 and 55 min. The series is classed as cell-based. As to the method:
30.000 cells of the murine mammary carcinoma cell line 4T1 were seeded into a sterile 24 well dish (Nunc™, Roskilde, Denmark). After 24 hours, the monolayer culture was treated with 20µg Cypep-1/ml, followed by immediate observation of the cells at 37°C and 5% CO2 for a period of 3 hours by means of time-lapse confocal microscopy, using a Zeiss LSM510 Meta System (Carl Zeiss AG, Jena, Germany), equipped with both bright field optics and red fluorescence optics at 595nm. The same experiment was repeated as described above with 4T1 cells that had previously been stably transfected with red fluorescent protein, using a dsRed-expressing lentiviral vector pWPXL-dsRED as previously described by Niclou et al..

Series [2] is described as follows: Surface plasmon resonance (SPR) binding to liposomes. The note with it: BIAcore 3000, L1 chip, curve fitting. On the procedure:
SPR was used to quantify the binding of Cypep-1 to phospholipid model membranes of different compositions at neutral pH (pH 7.4) and a temperature of 25 °C. 100 nm liposomes made of egg yolk […] (EYL; L-α-phosphatidylcholine; 95% purity) were employed to represent amphitropic, neutral membranes, while liposomes composed of both pig brain L-α-phosphatidylserine (PBPS) and EYL (from Avanti Polar Lipids Inc., Alabaster, Alabama, USA), with PBPS:EYL in a 1:1 M: M mixture, represented acidic, negatively charged membranes. […] [79]. The SPR analyses were carried out on a BIAcore 3000 instrument (BIAcore AB, Uppsala, Sweden) as described in Halskau et al., using a L1 sensor chip from BIAcore (BIAcore AB, Uppsala, Sweden).
Background: In SPR one partner is held on a chip, and binding of the other changes the refractive index at the surface.

The nature of series [3]: Biodistribution of 125I-Cypep-1 after i.v. injection. Type of series: in vivo, Wistar rat. The note with it: rat. As to the method: The radio labelling of Cypep-1 was performed with ^125I, according to the Iodo-Gen method as described by Fraker et al.. The obtained ^125I-Cypep-1 stock solution was stored in the dark at 4°C for 48 hours prior to validation by reversed phase chromatography, using a 4.6 × 50 mm Dionex Proswift RP-2H column on an Ettan LC System (GE Healthcare, Oslo, Norway) in line with a Radiomatic 610TR Flow System Analyzer by Perkin Elmer (PerkinElmer, Waltham, MA) for gamma detection.
The plasma activity and biodistribution of ^125I-Cypep-1 was evaluated in a single experiment. An adult female Wistar rat of 260 g body weight was anaesthetized using 15 mg of Pentobarbital i.p.. Its body temperature was maintained at 37°C, using both a heating pad and an infrared lamp. Two PE-50 polyethylene catheters were placed into the femoral vein for the bolus injection of Cypep-1 and one into the femoral artery for blood sampling. 50 µl of the ^125I-Cypep-1 stock solution dissolved in 500 µl 0.9% NaCl were injected i.v., and a total of six arterial blood samples (100 µl per sample) were collected at 0.25, 1, 5, 10, 15 and 20 min following the ^125I-Cypep-1 administration. The animal was sacrificed under deep anaesthesia with an i.v. bolus injection of 0.5 ml saturated KCl. The tissue and plasma samples were harvested immediately and counted for ^125I-activity in a gamma-counter (LKB Wallac 1285, Turku, Finland). The peptide distribution volumes in the various body tissues were calculated as the ^125I-activity per gram tissue sample divided by the time-averaged plasma ^125I-activity during the 20 minutes clearance period (*= plasma equivalent space in ml/g tissue wet weight).

For series [4], the system named is 4T1 murine mammary carcinoma allografts. The experiment in a line: Treatment of subcutaneous 4T1 murine breast cancer allografts. Type of series: in vivo, BALB/c mice. As to the method:
10^6 4T1 murine metastatic breast cancer cells were grafted subcutaneously under Isofluran anaesthesia into the right upper quadrant of the back of 20 female BALB/c mice (average age 126,25 days; average weight 23.8g). At day 12, when the tumours of both groups had reached a tumour volume of 0.12cm^3 in average, 10 female mice (average weight 23.9 g) received a single intra-tumoural injection of 1200 µg of Cypep-1 dissolved in 300 µl 0.9% NaCl, whereas an equal injection volume of 0.9% NaCl was administered to the 10 animals of the control group (average weight 23.7 g). All injections were performed under isofluoran gas anaesthesia. The animals were then observed for signs of distress as described above. 24 hours after the injections, two animals (one assigned to the control and one of the treatment group) were sacrificed for histological analysis. The harvested tumours were immediately fixed in 4% buffered formaldehyde and embedded in paraffin, cut into 5 µm sections and stained with H&E.
In the remaining 18 experimental animals, the tumour size was measured at regular intervals (every 4th day) until day 24 post tumour grafting. All mice were monitored daily for signs of distress and pain. Those that became sick were euthanized humanely. All animal procedures described were in accordance with protocols approved by The National Animal Research Authority (Oslo, Norway).

For a further series, the system named is BALB/c mice. As to the kind of experiment: In vivo toxicity after tail vein injection. Details: species or system mouse. The note with it: 100 µl bolus per animal. On the procedure:
Cypep-1 was injected into the lateral tail vein of 37 BALB/c mice (average age 131,7 days; average weight 25.2 g). In detail, the group consisted of 18 male (average weight 26.5g) and 19 female animals (average weight 23.9g). The respective peptide concentrations administered were increased systematically from 50µg up to 800µg Cypep-1 per bolus per animal. All Cypep-1 doses were adjusted to a total injection volume of 100µl 0,9% NaCl, which remained constant for all animals. Throughout the experiment, a group of 4 animals (2 males/ 2 females) received the same Cypep-1 concentrations per bolus, respectively. All injections were performed very slowly in order to avoid cardiac stress. The mice were then observed for a period of 24h with regards to signs of distress and pain (e.g. orbital tightening, flattened ear position, formation of nose and/or cheek bulge, whisker change, overall activity level) as well as potential toxic effects. During the first 2 hours, the animals were monitored continuously and then checked again at 4 h, 6 h, 12 h and 24 h post injection.

The mark [5] stands for this setting: 125I-Cypep-1, i.v., 20 min after administration, gamma counting, single animal.

As for YGRKKRRQRRRGKTLRVAKAIYKRYIE [Cypep-1], the “membrane disruption by time-lapse confocal microscopy” value in series [1] is reported as “extensive loss of cell content into the medium”. Moreover, the “peptide concentration of half-maximal binding (S0.5)” value in series [2] (100 nm EYL liposomes, pH 7.4, 25 °C) came to 39.1 ± 5.3 µg/mL. In addition, the “peptide concentration of half-maximal binding (S0.5)” value in series [2] (100 nm liposomes PBPS:EYL 1:1, pH 7.4, 25 °C) amounted to 16.2 ± 4.4 µg/mL. For the same sequence, in series [3] (setting [5]), the “tissue distribution, cerebellum” value turned out to be 0.00 ml/g tissue wet weight; the “tissue distribution, cerebrum” value amounted to 0.01 ml/g tissue wet weight; the “tissue distribution, colon” value was found to be 0.14 ml/g tissue wet weight; the “tissue distribution, eye” value is recorded as 0.02 ml/g tissue wet weight. For the same sequence, in series [3] (setting [5]), the “tissue distribution, jejunum” value is recorded as 0.17 ml/g tissue wet weight; the “tissue distribution, kidneys (per kidney)” value worked out at 1.685 ml/g tissue wet weight; the “tissue distribution, liver” value came to 11.74 ml/g tissue wet weight; the “tissue distribution, lungs” value is on record as 0.38 ml/g tissue wet weight. In series [3] (setting [5]), the “tissue distribution, muscle tissue” value stood at 0.02 ml/g tissue wet weight; the “tissue distribution, spleen” value was 4.89 ml/g tissue wet weight; the “tissue distribution, stomach” value is listed as 0.04 ml/g tissue wet weight; the “tissue distribution, thyroid gland” value came out at 0.13 ml/g tissue wet weight. Moreover, the “passage of the blood-brain-barrier” value in series [3] (concluded from very low concentrations in organs of the central nervous system, i.v.) is on record as “did not pass the blood-brain-barrier”. The “histological analysis of tumours” value in series [4] (24 hours after intra-tumoural administration of 1200 µg, H&E) is recorded as “extensive areas of necrosis”. The “average tumour volume at day 24” value in series [4] (single intra-tumoural injection of 1200 µg at day 12, control 3.5 cm^3, P<0.0001) is 1.1 cm^3. In series [4] (single intra-tumoural injection of 1200 µg at day 12, control 20 days, P<0.0011), the median survival is 32 days. In series [4] (single intra-tumoural injection of 1200 µg in 300µl 0.9% NaCl, BALB/c mice), the “signs of discomfort, pain or toxicity after intratumoural injection” value was “None of the animals showed any signs of discomfort, pain or toxicity”. Besides, the “dose with first signs of toxicity (seizure-like catatonic stupor)” value in the series with BALB/c mice (slow tail vein injection) was 600 µg. In addition, in the series with BALB/c mice (slow tail vein injection, 24 h observation), the “dose with no signs of distress or pain” value is “up to 500 µg”. This sequence also had a lethal dose in the series with BALB/c mice (tail vein injection, death within 5 - 10 min) of 800 µg.
